Reference: patent publication US6787141B1, “Peptide having for fibrinogen fragment E activity, analogs, antibodies and uses thereof” (The University Court of The University of Aberdeen, priority 1999, dated 2004)

Legend:
[1] = system: chick chorioallantoic membrane (CAM); assay: chick chorioallantoic membrane (CAM) cell proliferation assay (DNA synthesis, tritiated thymidine); assay type: in vivo
Protocol: Cell proliferation was measured using the chick chorioallantoic membrane (CAM) model as described previously (4, 29, 30).The assay used is based on quantitative measurement of DNA synthesis in the CAM after exposure to control and test substances 18 h after application in liquid form to the whole “dropped” area of each CAM (4, 29). This assay is a measure of changes in CAM vascularity (30).
The rabbit and rat antisera were mixed with active fibrin degradation products. These were applied to the chick CAM with a positive control (fibrin degradation products) and a negative control (the antibody alone). The CAM was processed for incorporation of tritiated thymidine.
The rabbit antisera were then tested for ability to block the stimulatory activity of human FDP on the chick CAM model. The assay used was based on quantitative measurement of DNA synthesis in the CAM after exposure to control and test substances 18 h after application in liquid form to the whole “dropped” area of each CAM (4,29). This assay is a measure of changes in CAM vascularity (30). Anti phage antisera, raised by relatively short term immunisation of rabbits, were used at a 1/2 dilution and admixed with FDP used at a concentration of approximately 1.95 mg/ml diluted before use to 1/10. Controls included buffer only and antiserum only groups of CAMs. After filter sterilisation, 0.3 ml was added onto each CAM dropped surface.

Chick fibroblasts = assay: cell immunohistochemistry; assay type: cell-based; conditions: 2 hours exposure
Protocol: Chick fibroblasts were cultured in a 25 cm^2 flask (Nunc) until confluent (approximately 3×10^6 cells). The cells were washed in PBS and then trypsinised and diluted to 3×10^5 cells per ml in Dulbecco modified medium with 10% foetal calf serum. […] of the cells suspension was plated into each well of a Nunc culture well slide. The cells were incubated overnight to allow adhesion and recovery from the passaging. Digoxygenin labelled fibrin fragment E was added to a final concentration of 8 mg per ml. Control wells contained unconjugated digoxygenin and PBS.
The cells were rinsed after 2 hours with PBS then washed 3 times in TBS followed by one wash in distilled water. The cells were then incubated for 2 hours with sheep anti-digoxygenin alkaline phosphatase. The slides were then washed three times in TBS and developed with NBT and BCIP in bicarbonate buffer pH 9.8. The slides were air dried and then mounted for observation of membrane staining under the microscope.

[2] = system: Chick fibroblasts, Cos7, mouse 3T3 and human embryonic lung cells (HEL); assay: cell binding assays; assay type: cell-based; conditions: each of the cell types; 6 hours at 37° C.
Protocol: Chick fibroblasts, Cos7, mouse 3T3 and human embryonic lung cells (HEL) were cultured in a 25 cm^2 flask (Nunc) until confluent (approximately 3×10^6 cells). The cells were trypsinised and resuspended at concentration of 1.3×10^5 cells/ml. 200 μl of this cell suspension was added to each well of a 96 well culture plate (Nunc). The cells were incubated overnight at 37° C. to allow adherence and recovery. The cells were then divided into three sections, digoxygenin controls, PBS controls and digoxygenin labelled fragment E tests. Increasing concentrations of digoxygenin and digoxygenin labelled fibrin fragment E were applied from 0-30 mg per well. The plates were incubated for 6 hours at 37° C. under culture conditions.
The plates were emptied of media and washed three times with PBS. The cells were then incubated for 2 hours with sheep antidigoxygenin alkaline phosphatase and developed with p-nitrophenyl phosphate in bicarbonate buffer pH 9.8. The plates were read on a Titertek Multiscan plate reader at 405 nm.

CRAHSFGSPRPLPVV [WTM110]
inhibition of the stimulatory effect of FDP ([1]; FIG. 4 legend, concentration not given): inhibits | inhibition of FDP induced cell proliferation ([1]; peptide at 7.5 μg/ml): little inhibition | inhibition of FDP induced cell proliferation ([1]; peptide at 15 μg/ml): inhibition was demonstrated with cell proliferation reduced to control level

B1: fibrin fragment E: fibrin fragment E, labelled with digoxygenin ester for detection (protein)
chain 1: GPRVVERHQSACKDSDWPFCSDEDWNYKCPSGCRMKGLIDEVNQDFTNRINKLKNSLFEYQK
chain 2: GHRPLDKKREEAPSLRPAPPPISGGGYRARPAKAAATQKKVERKAPDAGGCLHADPDLGVLCPTGCQLQEALLQQERPIRNSVDELNNNVEAVSQTSSSSFQYMYLLK
chain 3: YVATRDNCCILDERFGSYCPTTCGIADFLSTYQTKVDKDLQSLEDILHQVENKTSEVKQLIK
binding to cells (membrane staining) (Chick fibroblasts): shown to bind | binding to cells (absorbance at 405 nm compared to control preparations) [2]: high absorbance
